Laboratory results: paper PMC4999862, “Site-specific Isopeptide Bridge Tethering of Chimeric gp41 N-terminal Heptad Repeat Helical Trimers for the Treatment of HIV-1 Infection” (Scientific Reports, 2016)
Like-named read-outs stand apart in the source and are kept apart here. Bridge positions count the residues as written; N and C are the ends. I, II: the chains in the order shown.

Assays:
[1] = tested on: HIV-1 Env-mediated cell-cell fusion (HL2/3 effector cells, TZM-bl target cells); settings: for EC50: read-out: EC50 (nM) for cell-cell fusion, HL2/3 effector + TZM-bl target cells, 6 h at 37 °C, luciferase read-out, mean ± SD of three independent experiments
Experimental: The inhibitory activities of these peptides on HIV-1 Env-mediated cell-cell fusion were determined as described previously. Effector cells were HL2/3 cells, which stably express HIV Gag, Env, Tat, Rev, and Nef proteins at the cell surface (contributed by Drs. Barbara Felber and George Pavlakis). TZM-bl cells, which express high levels of CD4 and coreceptors, were used as target cells (contributed by Drs. John C. Kappes and Xiaoyun Wu). HL2/3 cells and TZM-b1 cells were obtained from the NIH AIDS Reference and Reagent Program. TZM-bl cells (2.5 × 10^4/well) were plated in a 96-well plate (Corning Costar) and cultured overnight at 37 °C in 5% CO2. Thereafter, serially diluted inhibitors were added (20 μL/well), followed by the addition of HL2/3 cells (7.5 × 10^4/well). After incubation for 6 h at 37 °C in 5% CO2, fusion efficiency was determined by measuring the luciferase activity using the Luciferase Assay System (Promega, Madison, WI) on a SpectraMax M5 plate reader (Molecular Devices, Sunnyvale, CA).

in vitro = assay type: cell-based; settings: human; uninfected MT-2 cells, XTT assay; read-out: CC50 (half maximal cytotoxic concentration)
Experimental: The cytotoxic effect of the compounds on MT-2 cells was determined using the XTT assay as described previously.

[2] = tested on: HIV-1 BaL (subtypes B, R5)
Experimental: (§1) Briefly, 1 × 10^4 MT-2 cells were infected with an HIV-1 strain (100 times the half-maximal tissue culture infective dose) in 200 μL of culture medium with or without the serially diluted test compounds overnight. Assay plates were incubated for 72 h, after which 100 μL of culture supernatant was collected from each well and assayed for p24 antigen using ELISA as described previously. The EC50 value of each test compound was calculated using Calcusyn software.

[3] = tested on: HIV-1 IIIB (subtypes B, X4)
Experimental: as §1

[4] = CD spectroscopy and thermal denaturation of chimeric N-trimers; assay type: physicochemical; settings: for Tm (°C): CD thermal denaturation at 222 nm, 15 °C to 90 °C, PBS pH 7.4, 10 μM; for Helicity (%): CD, PBS pH 7.4, 10 μM peptide
Experimental: All measurements were performed on an MOS-450 system (BioLogic, Claix, France) at a 4.0 nm bandwidth, 0.1 nm resolution, 0.1 cm path length, 4.0 s response time and 50 nm/min scanning speed. The individual N- and C-peptides as well as their equimolar mixtures were prepared in PBS (pH 7.4) at a final concentration of 10 μM and incubated at 37 °C for 30 min. Thermal denaturation was monitored by the ellipticity change at 222 nm by application of a thermal gradient from 15 °C to 90 °C with a 2 °C interval.

[5] = target: T1, C34 (HIV-1 gp41 CHR peptide) (Human immunodeficiency virus type 1 group M subtype B, UniProt P04578); assay type: binding; settings: CD, equimolar mixture 10 μM in PBS pH 7.4; θ222nm of 33000 for 100 % helicity
HIV-1NL4-3(D36G) = settings: read-out: EC50 against NL4-3 D36G; T20-sensitive strain; MT-2 cells, p24 ELISA; mean ± SD of three independent experiments
Experimental: as §1

[6] = tested on: NL4-3 mutant (36G)N42T/N43K; settings: read-out: EC50 against NL4-3 (36G)N42T/N43K; T20-resistant strain; MT-2 cells, p24 ELISA; mean ± SD of three independent experiments
Experimental: as §1

[7] = tested on: NL4-3 mutant (36G)V38A/N42D; settings: read-out: EC50 against NL4-3 (36G)V38A/N42D; T20-resistant strain; MT-2 cells, p24 ELISA; mean ± SD of three independent experiments
Experimental: as §1

[8] = tested on: NL4-3 mutant (36G)V38A/N42T; settings: read-out: EC50 against NL4-3 (36G)V38A/N42T; T20-resistant strain; MT-2 cells, p24 ELISA; mean ± SD of three independent experiments
Experimental: as §1

NL4-3 mutant (36G)V38A = settings: read-out: EC50 against NL4-3 (36G)V38A; T20-resistant strain; MT-2 cells, p24 ELISA; mean ± SD of three independent experiments
Experimental: as §1

[9] = tested on: NL4-3 mutant (36G)V38E/N42S; settings: read-out: EC50 against NL4-3 (36G)V38E/N42S; T20-resistant strain; MT-2 cells, p24 ELISA; mean ± SD of three independent experiments
Experimental: as §1

[10] = tested on: T20-sensitive and -resistant HIV-1 NL4-3 strains; settings: read-out: EC50 values against both T20-sensitive and -resistant strains; range over the six NL4-3 strains of Table 2
Experimental: as §1

[11] = Metabolic stability in liver homogenate; assay type: in vitro ADME; settings: rat liver homogenate, 20 μM, reversed-phase HPLC, UV 210 nm
Experimental: (§2) Three male SD rats weighing approximately 200 g each were obtained from the Animal Center of Beijing Institute of Pharmacology & Toxicology and were used for the metabolic stability assay. Animals were treated in accordance with the Animal Welfare Act and the “Guide for the Care and Use of Laboratory Animals” (NIH Publication 86-23, revised 1985). Preparation of Samples.Calibration samples were prepared by mixing various concentrations of each test compound ranging from 4 to 150 μM in H2O with rat plasma or tissue homogenate at a volume ratio of 100 μL:100 μL (Supplementary Figs S5–S7). Each test sample (100 μL) was spiked with 100 μL of acetonitrile containing 0.1% TFA. The mixture was vortexed and centrifuged at 18,000 g for 10 min. Then, the supernatant was transferred to HPLC autosampler vials, and aliquots (10 μL) were injected into the HPLC system. […] The mobile phase was composed of solvent A (water containing 0.1% TFA) and solvent B (70% acetonitrile and 0.1% TFA). […] The HPLC analysis was performed on a Waters X-Bridge C8 column (4.6 × 250 mm, 5 μm, 300 Å) at ambient temperature upon injection of 20 μL of each standard and/or sample to obtain the chromatogram. The only exception was for (IZ14N24N)3 in plasma and kidney homogenate, which was analyzed using a Phenomenex Jupiter C4 column (4.6 × 250 mm, 5 μm, 300 Å).

[12] = Metabolic stability in kidney homogenate; assay type: in vitro ADME; settings: rat kidney homogenate, 20 μM, reversed-phase HPLC, UV 210 nm
Experimental: as §2

[13] = target: T1, C34 (HIV-1 gp41 CHR peptide); experiment: Native-PAGE of N-peptides, C34 and their complexes; assay type: binding; settings: equimolar mixture with C34, 37 °C 30 min, PBS pH 7.2, 12% Tris-glycine gel, Coomassie
Experimental: Equimolar mixtures of C34 and N-peptides (80 μM in PBS, pH 7.2) were incubated at 37 °C for 30 min. After mixing with 1: 1 Tris-glycine native sample buffer (BioRad, Hercules, CA), the individual N- and C- peptides and the mixture (40 μM in PBS, pH 7.2) were loaded (25 μL in each well) onto 12% Tris-glycine gels. Gel electrophoresis was run under a constant voltage of 120 V at room temperature for 2.5 h. The gel was then stained with Coomassie blue R250.

[14] = read-out: EC50 (nM) for inhibition HIV-1BaL replication, 100 TCID50, 72 h, p24 ELISA, mean ± SD of three independent experiments
[15] = read-out: EC50 (nM) for inhibition HIV-1IIIB replication, MT-2 cells, 100 TCID50, 72 h, p24 ELISA, mean ± SD of three independent experiments

T1 sequence (P04578 628-661): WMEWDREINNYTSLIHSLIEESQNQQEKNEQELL

I: Ac-EQEAIKKKIEAIEKLLQLTVWGIKQLQARIL-NH2 / II: Ac-EQEAIKKKIEAIEKLLQLTVWGIKQLQARIL-NH2 / III: Ac-EQEAIKKKIEAIEKLLQLTVWGIKQLQARIL-NH2 (amide I:8-III:13, I:13-II:8, II:13-III:8) [(IZ14N17)3]
EC50 [1]: 21.9 ± 2.4 nM
CC50 (in vitro): 7.3 ± 1.7 µM
EC50 [2, 14]: 3.3 ± 2 nM
EC50 [3, 15]: 1.9 ± 1.2 nM
Tm (°C) [4]: > 90 °C
Helicity (%) [4]: 100%
Helicity (%) of the 6HBs formed between chimeric N-peptides and C34 [5]: 74%

Enfuvirtide
EC50 ([2]; BaL (subtypes B, R5, 72 h)): 25.2 ± 1.9 nM
EC50 ([3]; IIIB (subtypes B, X4, 72 h)): 4.9 ± 0.6 nM

I: Ac-EQEAIKKKIEAIEKAIEAQQHLLQLTVWGIKQLQARIL-NH2 / II: Ac-EQEAIKKKIEAIEKAIEAQQHLLQLTVWGIKQLQARIL-NH2 / III: Ac-EQEAIKKKIEAIEKAIEAQQHLLQLTVWGIKQLQARIL-NH2 (amide I:8-III:13, I:13-II:8, II:13-III:8) [(IZ14N24N)3]
EC50 [1]: 2.79 ± 0.1 nM
fold greater cell-cell fusion inhibitory activity than (IZ14N17)3 ([1]; relative to (IZ14N17)3): about 8 fold
CC50 (in vitro): > 20 µM
EC50 [2, 14]: 3.2 ± 0.9 nM
EC50 [3, 15]: 0.4 ± 0.01 nM
EC50 (HIV-1NL4-3(D36G)): 1.3 ± 0.2 nM
EC50 [6]: 3.3 ± 0.1 nM
EC50 [7]: 2.7 ± 0.1 nM
EC50 [8]: 1.3 ± 0.8 nM
EC50 (NL4-3 mutant (36G)V38A): 0.7 ± 0.1 nM
EC50 [9]: 1.2 ± 0.2 nM
EC50 [10]: 0.7 to 3.3 nM
stability in liver homogenate for 24 h [11]: highly stable
stability in kidney homogenate for 24 h [12]: highly stable
Tm (°C) [4]: > 90 °C
Helicity (%) [4]: 100%
Helicity (%) of the 6HBs formed between chimeric N-peptides and C34 [5]: 87%
complex formation with C34 in N-PAGE [13]: form a stable complex with C34

I: Ac-IKKKIEAIEKLLQLTVWGIKQLQARIL-NH2 / II: Ac-IKKKIEAIEKLLQLTVWGIKQLQARIL-NH2 / III: Ac-IKKKIEAIEKLLQLTVWGIKQLQARIL-NH2 (amide I:4-II:9, I:9-III:4, II:4-III:9) [(IZ10N17)3]
EC50 [1]: 190 ± 4.6 nM
fold less potency than (IZN17R)3 in cell-cell fusion ([1]; relative to (IZN17R)3): 17 fold
CC50 (in vitro): 2 ± 0.2 µM
EC50 [2, 14]: 74.7 ± 6 nM
EC50 [3, 15]: 59.4 ± 9.1 nM
Tm (°C) [4]: > 90 °C
Helicity (%) [4]: 75%
Helicity (%) of the 6HBs formed between chimeric N-peptides and C34 [5]: 73%
complex formation with C34 in N-PAGE [13]: two bands with nearly the same density

I: Ac-EQEAIKKKIEAIEKLLQLTVWGIKQLQARILAVERYLK-NH2 / II: Ac-EQEAIKKKIEAIEKLLQLTVWGIKQLQARILAVERYLK-NH2 / III: Ac-EQEAIKKKIEAIEKLLQLTVWGIKQLQARILAVERYLK-NH2 (amide I:8-III:13, I:13-II:8, II:13-III:8) [(IZ14N24C)3]
EC50 [1]: 6.4 ± 1.6 nM
CC50 (in vitro): 7.7 ± 0.8 µM
EC50 [2, 14]: 6.6 ± 0.2 nM
EC50 [3, 15]: 4 ± 2.3 nM
Tm (°C) [4]: > 90 °C
Helicity (%) [4]: 100%
Helicity (%) of the 6HBs formed between chimeric N-peptides and C34 [5]: 76%

I: Ac-IKKKIEAIEKLLQLTVWGIKQLQARILAVERYLK-NH2 / II: Ac-IKKKIEAIEKLLQLTVWGIKQLQARILAVERYLK-NH2 / III: Ac-IKKKIEAIEKLLQLTVWGIKQLQARILAVERYLK-NH2 (amide I:4-II:9, I:9-III:4, II:4-III:9) [(IZ10N24C)3]
EC50 [1]: 13.8 ± 1.5 nM
CC50 (in vitro): 2 ± 0.4 µM
EC50 [2, 14]: 11.4 ± 5.5 nM
EC50 [3, 15]: 4.4 ± 0.4 nM
Tm (°C) [4]: > 90 °C
Helicity (%) [4]: 100%
Helicity (%) of the 6HBs formed between chimeric N-peptides and C34 [5]: 63%

I: Ac-IKKEQEAIKKKIEAIEKLLQLTVWGIKQLQARIL-NH2 / II: Ac-IKKEQEAIKKKIEAIEKLLQLTVWGIKQLQARIL-NH2 / III: Ac-IKKEQEAIKKKIEAIEKLLQLTVWGIKQLQARIL-NH2 (amide I:11-II:16, I:16-III:11, II:11-III:16) [(IZ17N17)3]
EC50 [1]: 46 ± 4.6 nM
CC50 (in vitro): 4 ± 0.3 µM
EC50 [2, 14]: 9 ± 0.2 nM
EC50 [3, 15]: 4.1 ± 3.1 nM
Tm (°C) [4]: > 90 °C
Helicity (%) [4]: 98%
Helicity (%) of the 6HBs formed between chimeric N-peptides and C34 [5]: 70%

I: Ac-IKKKIEAIEKAIEAQQHLLQLTVWGIKQLQARIL-NH2 / II: Ac-IKKKIEAIEKAIEAQQHLLQLTVWGIKQLQARIL-NH2 / III: Ac-IKKKIEAIEKAIEAQQHLLQLTVWGIKQLQARIL-NH2 (amide I:4-II:9, I:9-III:4, II:4-III:9) [(IZ10N24N)3]
EC50 [1]: 28.3 ± 4.3 nM
CC50 (in vitro): 6.9 ± 1 µM
EC50 [2, 14]: 4.7 ± 0.5 nM
EC50 [3, 15]: 1.8 ± 0.7 nM
Tm (°C) [4]: > 90 °C
Helicity (%) [4]: 100%
Helicity (%) of the 6HBs formed between chimeric N-peptides and C34 [5]: 80%
